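Five concentrations, 48 hours, 96-well plates. TGI denotes the concentration required for complete inhibition of growth.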
Experiments:
Assay in all cases: inhibition of tumour cell growth, NCI panel, 48 h
[1] = system: ACHN renal
[2] = system: CCRF-CEM leukemia
[3] = system: HS 578T breast
[4] = system: K-562 leukemia
[5] = system: M14 melanoma
[6] = system: NCI-H460 lung
[7] = system: SR leukemia
[8] = system: UACC-62 melanoma
[9] = system: UO-31 renal

## Cc1cc(S(=O)(=O)/N=C(/NN)Nc2ccc(Cl)cc2)c(S)cc1Cl
[1]
  TGI: 20 µM
[2]
  TGI: 94 µM
[3]
  TGI: 11.3 µM
[4]
  TGI: > 100 µM
[5]
  TGI: 34.6 µM
[6]
  TGI: 17.1 µM
[7]
  TGI: > 100 µM
[8]
  TGI: 27.4 µM
[9]
  TGI: 18 µM

## Cc1ccc(S(=O)(=O)NC(=O)C2=C3SCCN3C(=O)N(S(=O)(=O)c3ccc(C)cc3)C2c2ccccc2)cc1 (configuration not stated)
[1]
  TGI: > 100 µM
[2]
  TGI: 60.5 µM
[3]
  TGI: > 100 µM
[4]
  TGI: > 100 µM
[5]
  TGI: > 100 µM
[6]
  TGI: > 100 µM
[7]
  TGI: > 100 µM
[8]
  TGI: > 100 µM
[9]
  TGI: > 100 µM

## CC1CCC2(OC1)OC1C(O)C3C4CCC5CC(OC6OC(CO)C(OC7OC(CO)C(O)C(OC8OCC(O)C(O)C8O)C7OC7OC(CO)C(O)C(OC8OC(CO)C(O)C(O)C8O)C7O)C(O)C6O)C(O)CC5(C)C4CCC3(C)C1C2C (configuration not stated)
[1]
  TGI: 3.08 µM
[2]
  TGI: 10.5 µM
[3]
  TGI: 4.5 µM
[4]
  TGI: > 100 µM
[5]
  TGI: 24.9 µM
[6]
  TGI: 3.35 µM
[7]
  TGI: 18.8 µM
[8]
  TGI: 14.1 µM
[9]
  TGI: 3.66 µM

## CCN(CC)C(=O)Cn1c2c(c3ccccc31)CCCC2
[1]
  TGI: > 100 µM
[2]
  TGI: > 100 µM
[3]
  TGI: > 100 µM
[4]
  TGI: > 100 µM
[5]
  TGI: > 100 µM
[6]
  TGI: > 100 µM
[7]
  TGI: > 100 µM
[8]
  TGI: > 100 µM
[9]
  TGI: > 100 µM

## Cc1cc(-c2nc3cccc(O)c3s2)ccc1N
[1]
  TGI: 49.9 µM
[2]
  TGI: 65.2 µM
[3]
  TGI: 46.4 µM
[4]
  TGI: > 100 µM
[5]
  TGI: 37.7 µM
[6]
  TGI: > 100 µM
[7]
  TGI: > 100 µM
[8]
  TGI: 33.1 µM
[9]
  TGI: 25.4 µM

## Cc1ncc(COP(=O)(O)O)c(/C=C2\SC(=S)NC2=O)c1O
[1]
  TGI: > 100 µM
[4]
  TGI: > 100 µM
[5]
  TGI: > 100 µM
[6]
  TGI: > 100 µM
[7]
  TGI: > 100 µM
[8]
  TGI: > 100 µM
[9]
  TGI: > 100 µM

## Oc1ccc(Oc2cc3c(cc2Oc2ccc(O)cc2)-c2nc-3nc3[nH]c(nc4nc(nc5[nH]c(n2)c2cc(Oc6ccc(O)cc6)c(Oc6ccc(O)cc6)cc52)-c2cc(Oc5ccc(O)cc5)c(Oc5ccc(O)cc5)cc2-4)c2cc(Oc4ccc(O)cc4)c(Oc4ccc(O)cc4)cc32)cc1
[1]
  TGI: > 100 µM
[2]
  TGI: > 100 µM
[3]
  TGI: > 100 µM
[4]
  TGI: > 100 µM
[5]
  TGI: 30.3 µM
[6]
  TGI: > 100 µM
[7]
  TGI: > 100 µM
[8]
  TGI: > 100 µM
[9]
  TGI: > 100 µM

## CCOC(=O)c1cc(Br)c(-c2onc(C)c2Br)[nH]1
[2]
  TGI: > 100 µM
[3]
  TGI: > 100 µM
[4]
  TGI: > 100 µM
[5]
  TGI: > 100 µM
[6]
  TGI: > 100 µM
[7]
  TGI: > 100 µM
[8]
  TGI: > 100 µM
[9]
  TGI: > 100 µM

## CCCCCCCCC#CCCCCCCCCCC[C@@H]1C(=O)O[C@H](C)[C@@H]1O (tested in a mixture with another compound)
[1]
  TGI: 45.2 µM
[4]
  TGI: 21.4 µM
[5]
  TGI: 41 µM
[6]
  TGI: 35.8 µM
[9]
  TGI: 35.3 µM

## Cc1c2cccc-2ccc2c3ccccc3n(C(=O)c3ccc(Cl)cc3)c12
[1]
  TGI: > 100 µM
[2]
  TGI: > 100 µM
[3]
  TGI: > 100 µM
[4]
  TGI: > 100 µM
[5]
  TGI: > 100 µM
[6]
  TGI: > 100 µM
[7]
  TGI: > 100 µM
[8]
  TGI: > 100 µM
[9]
  TGI: > 100 µM

## CCNc1cc2c3c(c1)CCN3CCC2
[1]
  TGI: > 10 µM
[2]
  TGI: > 10 µM
[3]
  TGI: > 10 µM
[4]
  TGI: 5.05 µM
[5]
  TGI: > 10 µM
[6]
  TGI: > 10 µM
[7]
  TGI: > 10 µM
[8]
  TGI: > 10 µM
[9]
  TGI: > 10 µM

## O=C(O)c1ccccc1C1c2ccccc2Oc2ccccc21
[1]
  TGI: > 100 µM
[2]
  TGI: > 100 µM
[4]
  TGI: > 100 µM
[5]
  TGI: > 100 µM
[6]
  TGI: > 100 µM
[7]
  TGI: > 100 µM
[8]
  TGI: > 100 µM
[9]
  TGI: > 100 µM

## Cc1c([C@H](C)[C@@H]2NC[C@@H](C)C[C@H]2O)ccc2c1C[C@H]1[C@H]2CC=C2C[C@@H](O)CC[C@@]21C
[1]
  TGI: 37.6 µM
[2]
  TGI: 38.4 µM
[3]
  TGI: 66.6 µM
[4]
  TGI: 40.6 µM
[5]
  TGI: 31.4 µM
[6]
  TGI: 41.4 µM
[8]
  TGI: 28.1 µM
[9]
  TGI: 37.5 µM

## O=C1NC(N2CCOCC2)=N/C1=C\c1ccc(O)cc1
[1]
  TGI: > 100 µM
[2]
  TGI: > 100 µM
[3]
  TGI: > 100 µM
[5]
  TGI: > 100 µM
[7]
  TGI: > 100 µM
[8]
  TGI: > 100 µM
[9]
  TGI: > 100 µM

## O=C(c1ccc(Cl)cc1)N1CCN=C1c1cc2ccccc2c2ccccc12
[1]
  TGI: 31.2 µM
[2]
  TGI: 81.1 µM
[3]
  TGI: 35.9 µM
[4]
  TGI: 95.8 µM
[5]
  TGI: > 100 µM
[6]
  TGI: 24.9 µM
[7]
  TGI: 59 µM
[8]
  TGI: 27.7 µM
[9]
  TGI: 31.5 µM

## COc1nc(C#CC2CCCCC2)nc(OC)n1
[1]
  TGI: 17.5 µM
[2]
  TGI: 11.7 µM
[3]
  TGI: 17.7 µM
[4]
  TGI: 28.4 µM
[5]
  TGI: 10.6 µM
[6]
  TGI: 26.6 µM
[7]
  TGI: > 100 µM
[8]
  TGI: 4.38 µM
[9]
  TGI: 12.2 µM

## O=C(N=Nc1ccccc1Cl)NNc1ccccc1Cl
[1]
  TGI: 92.6 µM
[2]
  TGI: 53.6 µM
[4]
  TGI: 73.1 µM
[5]
  TGI: > 100 µM
[6]
  TGI: > 100 µM
[7]
  TGI: > 100 µM
[8]
  TGI: > 100 µM
[9]
  TGI: > 100 µM

## CCSC1=CC2(O)N(CCc3ccc(OC)c(OC)c3)C(=O)CC2(C(=O)OC)CC1=O (configuration not stated)
[1]
  TGI: > 100 µM
[2]
  TGI: > 100 µM
[4]
  TGI: > 100 µM
[5]
  TGI: 56.4 µM
[7]
  TGI: 58.6 µM
[8]
  TGI: 39.8 µM
[9]
  TGI: 33.1 µM

## CCOc1cc2c(cc1O)C(O)C[C@@H]1[C@@H]2CC[C@]2(C)[C@@H](O)CC[C@@H]12 (some centres not stated)
[1]
  TGI: > 100 µM
[2]
  TGI: > 100 µM
[3]
  TGI: > 100 µM
[4]
  TGI: > 36.4 µM
[5]
  TGI: > 100 µM
[7]
  TGI: > 100 µM
[8]
  TGI: > 100 µM
[9]
  TGI: > 100 µM

## CC1(C)CC[C@]2(C(=O)O)CC[C@]3(C)[C@H](C(=O)C=C4[C@@]5(C)C=C(C#N)C(=O)C(C)(C)[C@@H]5CC[C@]43C)[C@@H]2C1
[1]
  TGI: 4.47 µM
[2]
  TGI: > 100 µM
[3]
  TGI: 10.4 µM
[4]
  TGI: 27.1 µM
[5]
  TGI: 4.32 µM
[6]
  TGI: 22.2 µM
[7]
  TGI: 2.06 µM
[8]
  TGI: 4.43 µM
[9]
  TGI: 6.29 µM

## Clc1cc(Cl)ncn1
[1]
  TGI: > 100 µM
[2]
  TGI: > 100 µM
[3]
  TGI: > 100 µM
[4]
  TGI: > 100 µM
[5]
  TGI: > 100 µM
[6]
  TGI: > 100 µM
[7]
  TGI: > 100 µM
[8]
  TGI: > 100 µM
[9]
  TGI: > 100 µM

## COc1cccc(C2c3cc4c(cc3OC(Nc3ccccc3)C2C)OCO4)c1O (configuration not stated)
[1]
  TGI: > 68.3 µM
[2]
  TGI: 16.6 µM
[3]
  TGI: > 62.6 µM
[4]
  TGI: 15 µM
[5]
  TGI: 15.1 µM
[6]
  TGI: 26.4 µM
[7]
  TGI: 7.25 µM
[8]
  TGI: 29 µM
[9]
  TGI: 32.4 µM

## CCCCCCCCOc1ccc(/C=C/C2=[N+](CCO)CCO2)cc1
[1]
  TGI: 13 µM
[2]
  TGI: 6.43 µM
[3]
  TGI: 17.2 µM
[4]
  TGI: 4.87 µM
[5]
  TGI: 20 µM
[6]
  TGI: 10.5 µM
[7]
  TGI: 4.66 µM
[8]
  TGI: 17.2 µM
[9]
  TGI: 25.1 µM

— PubChem BioAssay (NCI)
